Reference: patent US11267824B2, “Inhibitors of indoleamine 2,3-dioxygenase and/or tryptophan 2,3-dioxygenase” (IDORSIA PHARMACEUTICALS LTD, priority 2017, dated 2022)

How the values were obtained:
[1] = target: Recombinant full-length human IDO1 (Homo sapiens (Human), UniProt P14902); assay: IDO1 enzymatic assay (IDO inhibitory activity); type: biochemical; conditions: 2 nM enzyme, 5 μM L-tryptophan, pH6.5, 30 min pre-incubation, NFK quantified by LCMS; mean values if measured multiple times; read-out: hIDO activity (IC50 in nM)
Summary of the method: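 N-His-tagged enzyme from E. coli at 2 nM in 37.5 mM phosphate pH6.5 with ascorbate, methylene blue, catalase; compounds 10 μM–0.5 nM, 0.6% DMSO, pre-incubated 30 min RT, then 5 μM L-tryptophan for 30 min RT. NFK quantified by LCMS against d5-tryptophan; IC50 from duplicate four-parameter fit, means where repeated.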

[2] = target: Recombinant human TDO comprising amino acids 19-407 (Homo sapiens (Human), UniProt P48775); assay: TDO2 enzymatic assay (TDO inhibitory activity); type: biochemical; conditions: 15 nM enzyme, 200 μM L-tryptophan, pH7, 30 min pre-incubation, NFK quantified by LCMS; mean values if measured multiple times; read-out: hTDO activity (IC50 in nM)
Summary of the method: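 His-tagged enzyme (15 nM, E. coli-expressed) in pH 7 phosphate buffer with ascorbate, catalase, BSA, Tween 20, 0.6% DMSO; 30 min RT pre-incubation with compound (10 μM–0.5 nM), then 200 μM L-tryptophan for 30 min RT. N′-formylkynurenine quantified by LCMS against deuterated tryptophan; IC50 by four-parameter fit, duplicates.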

Chain of Recombinant full-length human IDO1 (P14902 whole entry): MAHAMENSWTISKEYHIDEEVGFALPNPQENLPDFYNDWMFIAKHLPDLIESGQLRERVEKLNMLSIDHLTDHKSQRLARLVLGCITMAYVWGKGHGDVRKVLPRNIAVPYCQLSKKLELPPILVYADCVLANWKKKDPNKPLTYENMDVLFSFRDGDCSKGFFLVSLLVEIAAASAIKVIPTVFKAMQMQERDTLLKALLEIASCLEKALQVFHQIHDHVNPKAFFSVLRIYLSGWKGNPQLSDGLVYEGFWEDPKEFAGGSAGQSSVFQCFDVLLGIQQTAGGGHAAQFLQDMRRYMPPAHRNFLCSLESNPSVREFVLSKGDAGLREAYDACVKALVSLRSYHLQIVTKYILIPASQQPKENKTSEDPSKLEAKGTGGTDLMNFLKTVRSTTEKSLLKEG
Chain of Recombinant human TDO comprising amino acids 19-407 (P48775 19-406 limits assumed): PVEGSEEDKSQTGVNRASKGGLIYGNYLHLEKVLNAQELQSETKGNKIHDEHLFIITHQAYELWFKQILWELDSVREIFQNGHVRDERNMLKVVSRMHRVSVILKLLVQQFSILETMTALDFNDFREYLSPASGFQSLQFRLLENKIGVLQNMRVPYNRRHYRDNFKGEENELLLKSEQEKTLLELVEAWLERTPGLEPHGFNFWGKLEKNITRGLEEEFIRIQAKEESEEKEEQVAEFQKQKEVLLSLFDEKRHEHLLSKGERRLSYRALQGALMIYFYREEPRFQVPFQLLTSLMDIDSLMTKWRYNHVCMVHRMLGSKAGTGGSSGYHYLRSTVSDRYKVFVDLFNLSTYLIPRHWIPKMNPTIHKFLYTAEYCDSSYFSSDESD

Row | Structure (SMILES) | IC50 [1] | IC50 [2]
1 | O[C@H](c1c(-c2ccccc2)sc2cncn12)C1CCCCC1 [Example 92a, (S)-Cyclohexyl-(2-phenyl-imidazo[5,1-b]thiazol-3-yl)-methanol] | 242 nM | 171 nM
2 | CCc1sc2cncn2c1[C@@H](O)C1CCCCC1 [Example 96a, (S)-Cyclohexyl-(2-ethyl-imidazo[5,1-b]thiazol-3-yl)-methanol] | 5.32 nM | 20 nM
3 | C=Cc1sc2cncn2c1C(O)CC1CCCCC1 (stereo not drawn) [Example 97, 2-Cyclohexyl-1-(2-vinyl-imidazo[5,1-b]thiazol-3-yl)-ethanol] | 10.5 nM | 62.6 nM
4 | CCc1sc2cncn2c1[C@@H](O)CC1CCCCC1 [Example 100a, (S)-2-Cyclohexyl-1-(2-ethyl-imidazo[5,1-b]thiazol-3-yl)-ethanol] | 7.82 nM | 202 nM
5 | CCc1sc2cncn2c1[C@H](O)CC1CCCCC1 [Example 100b, (R)-2-Cyclohexyl-1-(2-ethyl-imidazo[5,1-b]thiazol-3-yl)-ethanol] | 1190 nM | 9950 nM
6 | OC(CC1CCC2CCCCC2C1)c1c(C2CC2)sc2cncn12 (stereo not drawn) [Example 101, 1-(2-Cyclopropyl-imidazo[5,1-b]thiazol-3-yl)-2-(decahydro-naphthalen-2-yl)-ethanol] | 485 nM | 1790 nM
7 | OC(CC1CCCC(C(F)(F)F)C1)c1c(C2CC2)sc2cncn12 (stereo not drawn) [Example 102, 1-(2-Cyclopropyl-imidazo[5,1-b]thiazol-3-yl)-2-(3-trifluoromethyl-cyclohexyl)-ethanol] | 87.6 nM | 818 nM
8 | OC(c1c(C2CC2)sc2cncn12)C1CCCC(C(F)(F)F)C1 (stereo not drawn) [Example 104, (2-Cyclopropyl-imidazo[5,1-b]thiazol-3-yl)-(3-trifluoromethyl-cyclohexyl)-methanol] | 75.7 nM | 1080 nM
9 | CC1(C)CCCC(CC(O)c2c(C3CC3)sc3cncn23)C1 (stereo not drawn) [Example 106, 1-(2-Cyclopropyl-imidazo[5,1-b]thiazol-3-yl)-2-(3,3-dimethyl-cyclohexyl)-ethanol] | 85.1 nM | 546 nM
10 | Cc1sc2cncn2c1C(O)CC1CCC(c2ccccc2)C1 (stereo not drawn) [Example 107, 1-(2-Methyl-imidazo[5,1-b]thiazol-3-yl)-2-(3-phenyl-cyclopentyl)-ethanol] | 167 nM | 1890 nM
11 | CC1(C)CCC(C(O)c2c(C(F)(F)F)sc3cncn23)C1 (stereo not drawn) [Example 108, (3,3-Dimethyl-cyclopentyl)-(2-trifluoromethyl-imidazo[5,1-b]thiazol-3-yl)-methanol] | 56.7 nM | 922 nM
12 | OC(CC1CCC(c2ccccc2)C1)c1c(C(F)(F)F)sc2cncn12 (stereo not drawn) [Example 112, 2-(3-Phenyl-cyclopentyl)-1-(2-trifluoromethyl-imidazo[5,1-b]thiazol-3-yl)-ethanol] | 666 nM | > 10200 nM
13 | COC1CCCC(CC(O)c2c(C3CC3)sc3cncn23)C1 (stereo not drawn) [Example 114, 1-(2-Cyclopropyl-imidazo[5,1-b]thiazol-3-yl)-2-(3-methoxy-cyclohexyl)-ethanol] | 40.5 nM | 1830 nM
14 | CC1CCC(C(O)c2c(C(F)(F)F)sc3cncn23)C1 (stereo not drawn) [Example 116, (3-Methyl-cyclopentyl)-(2-trifluoromethyl-imidazo[5,1-b]thiazol-3-yl)-methanol] | 45.5 nM | 701 nM
15 | CC1CCCCC1CC(O)c1c(C(F)(F)F)sc2cncn12 (stereo not drawn) [Example 117, 2-(2-Methyl-cyclohexyl)-1-(2-trifluoromethyl-imidazo[5,1-b]thiazol-3-yl)-ethanol] | 165 nM | 2680 nM
16 | CC1CCCC1C(O)c1c(C(F)(F)F)sc2cncn12 (stereo not drawn) [Example 119, (2-Methyl-cyclopentyl)-(2-trifluoromethyl-imidazo[5,1-b]thiazol-3-yl)-methanol] | 191 nM | 187 nM
17 | CC1CC(C)(C)CC1C(O)c1c(C2CC2)sc2cncn12 (stereo not drawn) [Example 120, (2-Cyclopropyl-imidazo[5,1-b]thiazol-3-yl)-(2,4,4-trimethyl-cyclopentyl)-methanol] | 172 nM | 247 nM
18 | CC1(C)CCC(CC(O)c2c(C(F)(F)F)sc3cncn23)C1 (stereo not drawn) [Example 121, 2-(3,3-Dimethyl-cyclopentyl)-1-(2-trifluoromethyl-imidazo[5,1-b]thiazol-3-yl)-ethanol] | 313 nM | 8490 nM
19 | CC1CCCC(CC(O)c2c(C(F)(F)F)sc3cncn23)C1 (stereo not drawn) [Example 122, 2-(3-Methyl-cyclohexyl)-1-(2-trifluoromethyl-imidazo[5,1-b]thiazol-3-yl)-ethanol] | 205 nM | 3810 nM

More lines, now with the values ahead:

Row | IC50 [1] | IC50 [2] | Structure (SMILES)
20 | 29.4 nM | 228 nM | CCC1CCCC1C(O)c1c(C2CC2)sc2cncn12 (stereo not drawn) [Example 123, (2-Cyclopropyl-imidazo[5,1-b]thiazol-3-yl)-(2-ethyl-cyclopentyl)-methanol]
21 | 7.07 nM | 259 nM | OC(c1c(C2CC2)sc2cncn12)C1CC2CCCC2C1 (stereo not drawn) [Example 133, (2-Cyclopropyl-imidazo[5,1-b]thiazol-3-yl)-(octahydro-pentalen-2-yl)-methanol]
22 | 139 nM | 3770 nM | OC(CC1CCCC1c1ccccc1)c1c(C2CC2)sc2cncn12 (stereo not drawn) [Example 135, 1-(2-Cyclopropyl-imidazo[5,1-b]thiazol-3-yl)-2-(2-phenyl-cyclopentyl)-ethanol]
23 | 33.2 nM | 579 nM | CC(C)C1(C)CCC(C(O)c2c(C3CC3)sc3cncn23)C1 (stereo not drawn) [Example 136, (2-Cyclopropyl-imidazo[5,1-b]thiazol-3-yl)-(3-isopropyl-3-methyl-cyclopentyl)-methanol]
24 | 18.7 nM | 151 nM | CC1(C)CCC(C)(C(O)c2c(C3CC3)sc3cncn23)C1 (stereo not drawn) [Example 139, (2-Cyclopropyl-imidazo[5,1-b]thiazol-3-yl)-(1,3,3-trimethyl-cyclopentyl)-methanol]
25 | 23.9 nM | 15.8 nM | Cc1sc2cncn2c1[C@@H](O)C1(C)CCCC1 [Example 140a, (S)-(1-Methyl-cyclopentyl)-(2-methyl-imidazo[5,1-b]thiazol-3-yl)-methanol]
26 | 81.2 nM | 412 nM | Cc1sc2cncn2c1C(O)C1CCC(C)(C)C1 (stereo not drawn) [Example 141, (3,3-Dimethyl-cyclopentyl)-(2-methyl-imidazo[5,1-b]thiazol-3-yl)-methanol]
27 | 172 nM | 962 nM | CC[C@H](C)c1sc2cncn2c1C(O)C1CCCCC1 (stereo partly drawn) [Example 185, [2-((S)-sec-Butyl)-imidazo[5,1-b]thiazol-3-yl]-cyclohexyl-methanol]
